Data published in patent publication US8912216B2, “Hetaryl-[1,8]naphthyridine derivatives” (Merck Patent GmbH, priority 2010, dated 2014).
Counter-ions that a name gives are not always drawn. Like-named read-outs stand apart in the source and are kept apart here.

What was measured:
GST-ALK5 = molecular target: T1, GST-ALK5 (Homo sapiens, UniProt P36897); test: In-vitro (enzyme) kinase assay, 384-well flashplate (Example 36); assay type: biochemical; settings: read-out: TβR activity (Example 36)
T1 sequence (P36897 34-503): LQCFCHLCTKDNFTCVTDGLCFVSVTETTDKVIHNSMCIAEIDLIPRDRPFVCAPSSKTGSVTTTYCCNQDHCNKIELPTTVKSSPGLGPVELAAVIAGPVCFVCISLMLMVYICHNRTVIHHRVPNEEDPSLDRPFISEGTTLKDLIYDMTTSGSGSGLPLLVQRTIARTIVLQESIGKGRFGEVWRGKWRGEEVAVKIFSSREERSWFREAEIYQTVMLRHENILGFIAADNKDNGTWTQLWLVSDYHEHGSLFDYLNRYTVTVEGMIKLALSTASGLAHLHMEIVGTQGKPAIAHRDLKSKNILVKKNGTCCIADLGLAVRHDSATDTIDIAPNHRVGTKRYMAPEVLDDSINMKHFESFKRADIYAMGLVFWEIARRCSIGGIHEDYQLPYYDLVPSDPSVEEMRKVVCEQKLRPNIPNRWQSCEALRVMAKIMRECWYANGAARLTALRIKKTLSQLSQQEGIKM
Protocol: In-vitro (Enzyme) Assay for Determination of the Efficacy of Inhibitors of the Inhibition of TGF-beta-Mediated Effects
The kinase assay was carried out as 384-well flashplate assay. 31.2 nM of GST-ALK5, 439 nM of GST-SMAD2 and 3 mM of ATP (with 0.3 μCi of ^33P-ATP/well) were incubated in a total volume of 35 μl (20 mM of HEPES, 10 mM of MgCl2, 5 mM of MnCl2, 1 mM of DTT, 0.1 of BSA, pH 7.4) without or with test substance (5-10 concentrations) at 30° C. for 45 min. The reaction was stopped using 25 μl of 200 mM EDTA solution, filtered with suction at room temperature after 30 min, and the wells were washed with 3 times 100 μl of 0.9% NaCl solution. Radioactivity was measured in the TopCount. The IC50 values were calculated using RS1.

[1] = tested on: TGF-beta-induced phosphorylation of Smad2 and Smad3 in Mv1-Lu cells; test: Inhibition of Smad2/3 phosphorylation in Mv1Lu cells (Example 35A); assay type: cell-based, mink Mustela vison; settings: Neogale vison, read-out: TβR activity (Example 35A)
Protocol: Inhibition of Smad2/3 Phosphorylation in Mv1Lu Cells by TGF-bta Receptor I Kinase Inhibitors
This assay was used to determine the inhibitory potency of compounds on TGF-beta-induced phosphorylation of Smad2 (Ser465/467) and Smad3 (Ser423/425). Mv1-Lu cells (lung epithelial cell line from mink Mustela vison; ATCC number: CCL-64) were seeded in DMEM (Invitrogen) supplemented with 10% fetal bovine serum (Pan Biotech) at a defined cell density in 24-well or 96-well plates (24-well plate: 1.5×10^5 cells per well; 96-well plate: 4×10^4 cells per well). Cell cultures were incubated in DMEM at 37° C. and 10% CO2. On the next day, the medium was replaced and cells were serum-starved for 16-20 hours. The following day, serial dilutions of compounds were added to the wells, pre-incubated for 1.5 hrs before recombinant TGF-beta 1 ligand (final concentration 5 ng/ml; R&D systems) was added. After one hour of ligand stimulation, lysates were prepared and analyzed using an enzyme-linked immunosorbent assay kit (PathScan Phospho-Smad2 Kit, Cell Signaling Technologies). The ELISA detects phosphorylated Smad2 as well as phosphorylated Smad3 with the phospho-specific antibody. TGF-beta stimulated cells and unstimulated cells served as positive and negative controls (100% and background control). The concentration of the vehicle DMSO was kept constant at 0.2% (v/v) in all wells. Dose-response relationships were fitted using curve fitting algorithms of the RS1 statistics software package (Brooks Automation Inc. RS/1—Statistical Tools Handbook. Release 6.2) to determine the concentration at which half-maximal inhibition (IC50) of Smad2/3 phosphorylation was achieved.

[2] = GST-ALK5, GST-SMAD2 substrate, 3 mM ATP, 30° C., 45 min
[3] = Mv1-Lu cells, TGF-beta 1 5 ng/ml, phospho-Smad2/3 ELISA

Row | SMILES | IC50 (GST-ALK5; [2]) | IC50 [1, 3] | further results
1 | Cc1ccn(-c2cc(-c3cncc(Br)c3)c3cccnc3n2)n1 [4-(5-Bromo-pyridin-3-yl)-2-(3-methyl-pyrazol-1-yl)-[1,8]naphthyridine] | – | – | IC50 (GST-ALK5; Table 2, intermediate, GST-ALK5 flashplate assay): > 10000 nM; IC50 ([1]; Table 2, intermediate, Smad2/3 phosphorylation in Mv1-Lu cells): > 10000 nM
2 | Fc1ccc(Cl)cc1-c1cc(-c2cncc3ccccc23)c2ccccc2n1 [compound 1, 2-(5-Chloro-2-fluoro-phenyl)-4-isoquinolin-4-yl-quinoline] | 1000 to 10000 nM | 1000 to 10000 nM | –
3 | Fc1ccc(Cl)cc1-c1cc(-c2cncc3ccccc23)c2cccnc2n1 [compound 2, 2-(5-Chloro-2-fluoro-phenyl)-4-isoquinolin-4-yl-[1,8]naphthyridine] | 100 to 1000 nM | 1000 to 10000 nM | –
4 | Cc1cccc(-c2cc(-c3cncc4ccccc34)c3cccnc3n2)n1 [compound 3, 4-Isoquinolin-4-yl-2-(6-methyl-pyridin-2-yl)-[1,8]naphthyridine] | 1000 to 10000 nM | > 10000 nM | –
5 | Fc1ccc(Cl)cc1-c1cc(-c2cncc(-c3ccccc3)c2)c2cccnc2n1 [compound 4, 2-(5-Chloro-2-fluoro-phenyl)-4-(5-phenyl-pyridin-3-yl)-[1,8]naphthyridine] | 100 to 1000 nM | 100 to 1000 nM | –
6 | Cc1cccc(-c2cc(-c3cncc(-c4ccccc4)c3)c3cccnc3n2)n1 [compound 5, 2-(6-Methyl-pyridin-2-yl)-4-(5-phenyl-pyridin-3-yl)-[1,8]naphthyridine] | 100 to 1000 nM | 1000 to 10000 nM | –
7 | Fc1ccc(Cl)cc1-c1cc(-c2cncc(-c3ccccc3)c2)c2ccccc2n1 [compound 6, 2-(5-Chloro-2-fluoro-phenyl)-4-(5-phenyl-pyridin-3-yl)-quinoline] | 1000 to 10000 nM | > 10000 nM | –
8 | Cn1cc(-c2cncc(-c3cc(-c4cc(Cl)ccc4F)nc4ncccc34)c2)cn1 [compound 7, 2-(5-chloro-2-fluoro-phenyl)-4-[5-(1-methyl-1H-pyrazol-4-yl)-pyridin-3-yl]-[1,8]naphthyridine] | < 100 nM | 100 to 1000 nM | –
9 | Cn1cc(-c2cncc(-c3cc(-c4cc(C(F)(F)F)ccc4F)nc4ncccc34)c2)cn1 [compound 8, 2-(2-Fluoro-5-trifluoromethyl-phenyl)-4-[5-(1-methyl-1H-pyrazol-4-yl)-pyridin-3-yl]-[1,8]naphthyridine] | < 100 nM | 100 to 1000 nM | –
10 | Cn1cc(-c2cncc(-c3cc(-c4cccc(Cl)c4)nc4ncccc34)c2)cn1 [compound 9, 2-(3-Chloro-phenyl)-4-[5-(1-methyl-1H-pyrazol-4-yl)-pyridin-3-yl]-[1,8]naphthyridine] | 100 to 1000 nM | 1000 to 10000 nM | –
11 | Cc1cccc(-c2cc(-c3cncc(-c4cnn(C)c4)c3)c3cccnc3n2)n1 [compound 10, 4-[5-(1-Methyl-1H-pyrazol-4-yl)-pyridin-3-yl]-2-(6-methyl-pyridin-2-yl)-[1,8]naphthyridine] | 100 to 1000 nM | 1000 to 10000 nM | –
12 | Fc1ccc(Cl)cc1-c1cc(-c2cncc(-c3cnn(C4CCNCC4)c3)c2)c2cccnc2n1 [compound 11, 2-(5-chloro-2-fluoro-phenyl)-4-[5-(1-piperidin-4-yl-1H-pyrazol-4-yl)-pyridin-3-yl]-[1,8]naphthyridine dihydrochloride] | < 100 nM | – | IC50 [1]: < 100 nM
13 | Nc1ncc(-c2cnn(C3CCNCC3)c2)cc1-c1cc(-c2cc(Cl)ccc2F)nc2ncccc12 [compound 13, 3-[2-(5-Chloro-2-fluoro-phenyl)-[1,8]naphthyridin-4-yl]-5-(1-piperidin-4-yl-1H-pyrazol-4-yl)-pyridin-2-ylamine dihydrochloride] | < 100 nM | – | IC50 [1]: < 100 nM
14 | Fc1ccc(C(F)(F)F)cc1-c1cc(-c2cncc(-c3cnn(C4CCNCC4)c3)c2)c2cccnc2n1 [compound 18, 2-(2-Fluoro-5-trifluoromethyl-phenyl)-4-[5-(1-piperidin-4-yl-1H-pyrazol-4-yl)-pyridin-3-yl]-[1,8]naphthyridine dihydrochloride] | < 100 nM | – | IC50 [1]: < 100 nM

Continued, in another order:

Row | IC50 (GST-ALK5; [2]) | IC50 [1, 3] | SMILES | further results
15 | > 10000 nM | > 10000 nM | Fc1ccc(Cl)cc1-c1cc(-c2cccc(-c3ccccc3)n2)c2cccnc2n1 [compound 12, 2-(5-Chloro-2-fluoro-phenyl)-4-(6-phenyl-pyridin-2-yl)-[1,8]naphthyridine] | –
16 | 100 to 1000 nM | 1000 to 10000 nM | Cn1cc(-c2cncc(-c3cc(-c4cccc(C(F)(F)F)c4)nc4ncccc34)c2)cn1 [compound 14, 4-[5-(1-Methyl-1H-pyrazol-4-yl)-pyridin-3-yl]-2-(3-trifluoromethyl-phenyl)-[1,8]naphthyridine] | –
17 | < 100 nM | 100 to 1000 nM | Cn1cc(-c2cncc(-c3cc(-c4ccccc4F)nc4ncccc34)c2)cn1 [compound 15, 2-(2-Fluoro-phenyl)-4-[5-(1-methyl-1H-pyrazol-4-yl)-pyridin-3-yl]-[1,8]naphthyridine] | –
18 | 100 to 1000 nM | 1000 to 10000 nM | Cn1cc(-c2cncc(-c3cc(-c4ccc(F)cc4)nc4ncccc34)c2)cn1 [compound 16, 2-(4-Fluoro-phenyl)-4-[5-(1-methyl-1H-pyrazol-4-yl)-pyridin-3-yl]-[1,8]naphthyridine] | –
19 | 100 to 1000 nM | 1000 to 10000 nM | Cn1cc(-c2cncc(-c3cc(-c4cc(F)c(F)cc4F)nc4ncccc34)c2)cn1 [compound 17, 4-[5-(1-Methyl-1H-pyrazol-4-yl)-pyridin-3-yl]-2-(2,4,5-trifluoro-phenyl)-[1,8]naphthyridine] | –
20 | – | 100 to 1000 nM | OCCn1cc(-c2cncc(-c3cc(-c4ccccc4F)nc4ncccc34)c2)cn1 [compound 40, 2-(4-{5-[2-(2-fluoro-phenyl)-[1,8]naphthyridin-4-yl]-pyridin-3-yl}-pyrazol-1-yl)-ethanol] | –
21 | – | 100 to 1000 nM | Fc1ccccc1-c1cc(-c2cncc(-c3cnn(CCN4CCOCC4)c3)c2)c2cccnc2n1 [compound 41, 2-(2-Fluoro-phenyl)-4-{5-[1-(2-morpholin-4-yl-ethyl)-1H-pyrazol-4-yl]-pyridin-3-yl}-[1,8]naphthyridine] | –
22 | – | 100 to 1000 nM | Fc1ccc(Cl)cc1-c1cc(-c2cncc(-c3cn(CCN4CCOCC4)nn3)c2)c2cccnc2n1 [compound 42, 2-(5-chloro-2-fluoro-phenyl)-4-{5-[1-(2-morpholin-4-yl-ethyl)-1H-[1,2,3]triazol-4-yl]-pyridin-3-yl}-[1,8]naphthyridine] | –
23 | 100 to 1000 nM | – | CN1CCC(c2nc(-c3cncc(-c4cc(-c5ccccc5F)nc5ncccc45)c3)no2)CC1 [compound 60, 2-(2-fluoro-phenyl)-4-{5-[5-(1-methyl-piperidin-4-yl)-[1,2,4]oxadiazol-3-yl]-pyridin-3-yl}-[1,8]naphthyridine] | –
24 | – | 1000 to 10000 nM | Cn1ccc(-c2cncc(-c3cc(-c4ccccc4F)nc4ncccc34)c2)n1 [compound 66, 2-(2-Fluoro-phenyl)-4-[5-(1-methyl-1H-pyrazol-3-yl)-pyridin-3-yl]-[1,8]naphthyridine] | –
25 | – | 1000 to 10000 nM | Cn1nccc1-c1cncc(-c2cc(-c3ccccc3F)nc3ncccc23)c1 [compound 67, 2-(2-Fluoro-phenyl)-4-[5-(2-methyl-2H-pyrazol-3-yl)-pyridin-3-yl]-[1,8]naphthyridine] | –
26 | 100 to 1000 nM | – | CN1CCN(c2ccnc(-c3cncc(-c4cc(-c5ccccc5F)nc5ncccc45)c3)n2)CC1 [compound 70, 2-(2-fluoro-phenyl)-4-{5-[4-(4-methyl-piperazin-1-yl)-pyrimidin-2-yl]-pyridin-3-yl}-[1,8]naphthyridine] | –
